Assay: Cytotoxicity in uninfected treated cultures (CC50)
Type: cell-based
Details: human, uninfected MRC-5 human embryo lung cells; Table 7; concentration yielding 50% cytotoxicity, uninfected MRC-5 cells

CSc1nc2ccc(OCCC3CCN(c4ccc(C)nn4)CC3)cc2o1 [Compound 4, 6-{2-[1-(6-Methyl-3-pyridazinyl)-4-piperidinyl]ethoxy}-2-methylthiobenzoxazole]
CC50: > 1 µg/mL
